Legend:
CLBL1 cells = experiment: Annexin V apoptosis assay (flow cytometry), CLBL1; type: cell-based, canine; conditions: CLBL1, 100 nM, 24 hours
Jurkat cells = experiment: MTS cell viability assay, Jurkat; type: cell-based, human; conditions: Homo sapiens, Jurkat, 72 hours, read-out: IC50 (± S.D.), Jurkat
Method: Cryopreserved tumor cells obtained from sterile lymph node biopsy samples from dogs with diffuse large B cell lymphoma (DLBCL) were cultured with 100 ng/mL of megaCD40L (Enzo Life Science, Plymouth Meeting, PA) as previously described, [27]. The human T-cell leukemia cell line, Jurkat, was from the American Type Culture Collection (ATCC, Manassas, VA) and cultured in RPMI1640 medium (Gibco/BRL, Grand Island, NY) containing 10% fetal bovine serum (FBS; Atlas Biologicals, Fort Collins, CO), 2-mercaptoethanol (Gibco/BRL), HEPES, L-glutamine, sodium pyruvate (Mediatech Inc., Manassas, VA), non-essential amino acids (Sigma Aldrich, St. Louis, MO), and Primocin (Invivogen, San Diego, CA). The canine DLBCL cell line CLBL1 obtained from Dr. Barbara Rütgen (University of Vienna, Austria), [29] and human DLBCL cell lines OCI-Ly3 [30], [31] and OCI-Ly10 [32] obtained from Dr. Anne Novak (Mayo Clinic Cancer Center, Rochester, MN) were cultured in complete Iscove’s Modified Dulbecco’s medium (IMDM) containing 20% FBS, L-glutamine, and Primocin. All cells were maintained at 37°C in a humidified 5% CO2 atmosphere. The following additional canine tumor cell lines were used to evaluate response to SINE compounds: C2, mast cell tumor line provided by Dr. George Caughey, UCSF, San Francisco, CA [33]; OSA16, osteosarcoma cell line, provided by Dr. Jaime Modiano, UM, Minneapolis, MN [34]; and 323610-3, malignant melanoma cell line, provided by Dr. Michael Kent, UCD, Davis, CA [35]. […]
(§1) Cell viability for lymphoid lines was determined by the MTS (3-(4, 5-dimethylthiazol-2-yl)-5-(3-carboxymethoxyphenyl)-2-(4-sulfophenyl)-2H-tetrazolium) assay using CellTiter 96® AQueous One Solution Cell Proliferation Assay Kit (Promega, Madison, WI). […] After 72 hours, 20 µL of MTS solution was added to each well and cells were incubated for another 4 hours before measuring absorbance at 490 nm using a Wallac Victor 1420 Multilabel Counter (Perkin Elmer, Waltham, MA). The IC50 of SINE was calculated using Prism 6 software (GraphPad Software, Inc., La Jolla, CA).

[1] = Phase I dose escalation study, toxicity assessment; conditions: dog, in vivo, po; orally twice/week (Monday/Thursday), dogs with spontaneous cancer; read-out: maximum tolerated dose (MTD)
Method: This study was a Phase I dose escalating, open label assessment of the safety and biologic activity of KPT-335 in client owned dogs with spontaneous malignancies. Assessment of clinical toxicities and tumor response was performed at each visit. Dogs were evaluated for hematologic and biochemical toxicities every 7 days with routine bloodwork. The initial dose of 1 mg/kg orally twice per week (Monday/Thursday or Tuesday/Friday) was based on previous data from normal laboratory dogs (data not shown) and dose escalation was set at 0.25 mg/kg increments in cohorts of 3 until dose limiting toxicity (DLT) was identified. The DLT was considered to be any grade 3 or 4 hematologic or non-hematologic toxicity based on the established VCOG-CTCAE criteria. […] Disease progression or signs and symptoms definitely related to disease were not considered adverse events (AEs). The maximum tolerated dose (MTD) was considered to be one dose below that at which DLT occurred.
Each patient underwent a baseline complete history, physical examination, and pre-dose laboratory assessment that included a complete blood count (CBC), serum biochemistry profile, coagulation parameters (PT/PTT) and urinalysis. Patients were assessed for adverse events on days 7, 14, 21, and 28, and every 2 weeks thereafter at which time all laboratory assessments were repeated. […]

[2] = Single oral dose pharmacokinetics in healthy dogs; type: in vivo; conditions: male, beagle, dog, plasma, 1.5 mg/kg single oral dose, fed, 6 dogs
Method: KPT-335 was administered as a single oral dose in capsule formulation to 6 male beagle dogs at approximately 1.5 mg/kg following a meal. Serial blood samples were collected from each dog prior to dosing and at 0.25, 0.5, 1, 2, 4, 6, 8, 12, 18, 24 and 48 hours post-dose and placed into tubes containing K2EDTA. Blood samples were stored on wet ice until processed to plasma by centrifugation at 3500 rpm for 10 minutes at 5°C. Plasma samples were stored in at −80°C until analysis at Agilux Laboratories (Worcester, MA). Plasma samples were analyzed for parent drug concentration using sample preparation by protein precipitation and then analysis by LC-MS/MS using propranolol as the internal standard. The method was qualified for use (a single batch to assess method performance: precision and accuracy; linearity of dilution; and matrix specificity) prior to initiation of sample analysis. Acceptance criteria for calibration standards and quality control samples were within ±30% nominal concentration. Individual animal pharmacokinetic parameter values were derived by the pharmacokinetic analysis program Phoenix WinNonlin version 6.3 (Pharsight Corporation), using the non-compartmental Model 200 with uniform weighting. The single-dose pharmacokinetic parameters assessed include: Cmax (maximum concentration observed); Tmax (time of observed maximum concentration); AUC0→∞ (area under the concentration-time curve from time zero extrapolated to infinity); AUC0→last (area under the concentration-time curve from time zero to the time of the last quantifiable concentration); and t1/2 (terminal half life). Descriptive statistical data (mean, standard deviation, and standard error of the mean) were calculated from the unrounded numbers in an Excel (Microsoft) spreadsheet. Concentration results, means, and calculated parameters were reported to 3 significant figures.

OCI-Ly3 DLBCL cells = experiment: MTS cell viability assay, OCI-Ly3; type: cell-based, human; conditions: Homo sapiens, OCI-Ly3, 72 hours, read-out: IC50 (± S.D.), OCI-Ly3
Method: Cryopreserved tumor cells obtained from sterile lymph node biopsy samples from dogs with diffuse large B cell lymphoma (DLBCL) were cultured with 100 ng/mL of megaCD40L (Enzo Life Science, Plymouth Meeting, PA) as previously described, [27]. The human T-cell leukemia cell line, Jurkat, was from the American Type Culture Collection (ATCC, Manassas, VA) and cultured in RPMI1640 medium (Gibco/BRL, Grand Island, NY) containing 10% fetal bovine serum (FBS; Atlas Biologicals, Fort Collins, CO), 2-mercaptoethanol (Gibco/BRL), HEPES, L-glutamine, sodium pyruvate (Mediatech Inc., Manassas, VA), non-essential amino acids (Sigma Aldrich, St. Louis, MO), and Primocin (Invivogen, San Diego, CA). […]
as §1

[3] = dog, in vivo

Structure (SMILES): O=C(/C=C\n1cnc(-c2cc(C(F)(F)F)cc(C(F)(F)F)c2)n1)NNc1ccccn1 [KPT-335]
- apoptotic cells (Annexin V+ cells) compared to mock treated cells (CLBL1 cells): increased apoptotic cells
- IC50 (Jurkat cells): 0.3 nM
- MTD [1]: 1.75 mg/kg
- Cmax ([2]; po, 1.5 mg/kg, capsule): ~250 ng/mL
- Tmax ([2]; po, 1.5 mg/kg, capsule): ~4 h
- AUC [2]: 1800 ng·h/mL
- AUC(0-inf) ([2]; capsule): 1810 ng·h/mL
- AUC(0-t) ([2]; capsule, read-out: AUC0-last, mean): 1760 ng·h/mL
- half-life ([2]; capsule, read-out: t1/2, mean (converted)): 3.88 h
- IC50 (OCI-Ly3 DLBCL cells): 2.1 ± 1.3 nM
- tolerable doses [3]: below 3 mg/kg

— publication PMC3913620, “Preclinical Evaluation of the Novel, Orally Bioavailable Selective Inhibitor of Nuclear Export (SINE) KPT-335 in Spontaneous Canine Cancer: Results of a Phase I Study” (PLoS ONE, 2014)
